In ChEMBL document CHEMBL1127719, “Synthesis and serotonergic activity of benzofuran and dihydrogenzofuran analogues of 5-carboxamidotryptamine” (Bioorg Med Chem Lett, 1994):

Tests used:
[1] = molecular target: T1, 5-hydroxytryptamine receptor 3A (Rattus norvegicus, UniProt P35563); experiment: In Vitro Binding affinity againist 5-hydroxytryptamine 3 receptor by displacing [3H]-Q-ICS 205-930 from rat cortex homogenates
T1 sequence (P35563 whole entry): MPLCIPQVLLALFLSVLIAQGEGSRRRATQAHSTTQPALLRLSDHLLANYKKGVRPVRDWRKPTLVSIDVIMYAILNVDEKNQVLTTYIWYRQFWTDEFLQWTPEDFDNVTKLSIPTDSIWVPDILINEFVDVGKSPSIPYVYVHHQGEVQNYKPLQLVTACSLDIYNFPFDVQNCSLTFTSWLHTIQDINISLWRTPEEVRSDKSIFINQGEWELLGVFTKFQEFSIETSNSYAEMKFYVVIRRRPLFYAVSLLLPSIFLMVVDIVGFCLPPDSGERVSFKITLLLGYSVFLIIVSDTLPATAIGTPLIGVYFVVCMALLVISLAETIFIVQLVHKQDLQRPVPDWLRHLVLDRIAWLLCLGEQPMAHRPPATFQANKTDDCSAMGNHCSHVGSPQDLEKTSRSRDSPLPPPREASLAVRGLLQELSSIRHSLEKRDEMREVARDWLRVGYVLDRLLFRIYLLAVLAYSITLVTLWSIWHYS

[2] = molecular target: 5-hydroxytryptamine receptor 2A (Rattus norvegicus, UniProt P14842); experiment: In Vitro Binding affinity againist 5-HT2A receptor by displacing [3H]-DOB from rat cortex homogenates
Oryctolagus cuniculus [3] = species on record: Oryctolagus cuniculus; experiment: Relative maximum in rabbit by obtaining the maximum contraction relative to the maximum response with 1 uM 5-HT; format: functional
Oryctolagus cuniculus [4] = species on record: Oryctolagus cuniculus; experiment: In Vitro functional activity in rabbit saphenous vein

Sequence of 5-hydroxytryptamine receptor 2A (P14842 whole entry): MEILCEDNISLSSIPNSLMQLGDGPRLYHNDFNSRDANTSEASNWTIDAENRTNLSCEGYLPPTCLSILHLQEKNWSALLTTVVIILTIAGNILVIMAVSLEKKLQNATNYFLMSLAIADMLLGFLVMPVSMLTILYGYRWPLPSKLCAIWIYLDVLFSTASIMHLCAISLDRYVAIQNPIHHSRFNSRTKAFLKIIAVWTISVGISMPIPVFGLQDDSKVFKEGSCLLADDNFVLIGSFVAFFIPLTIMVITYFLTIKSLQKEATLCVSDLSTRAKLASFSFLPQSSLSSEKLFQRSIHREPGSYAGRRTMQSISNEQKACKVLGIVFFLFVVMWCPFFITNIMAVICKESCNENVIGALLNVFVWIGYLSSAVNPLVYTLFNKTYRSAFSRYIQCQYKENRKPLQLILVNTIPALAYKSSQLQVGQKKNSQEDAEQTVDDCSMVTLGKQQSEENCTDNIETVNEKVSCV

Compound: CN(C)CCc1coc2ccc(C(N)=O)cc12
- IC50 [1]: 3.98 µM
- IC50 [2]: 3.39 µM

Compound: NCCc1c[nH]c2ccc(C(N)=O)cc12
- Activity (Oryctolagus cuniculus [3]): 1.06
- EC50 (Oryctolagus cuniculus [4]): 0.0282 µM
- IC50 [2]: 21.9 µM

Compound: NCCC1COc2ccc(C(N)=O)cc21 (stereo unspecified)
- IC50 [1]: 4.27 µM
- IC50 [2]: > 10 µM

Compound: NCCc1coc2ccc(C(N)=O)cc12
- IC50 [1]: 7.41 µM
- Activity (Oryctolagus cuniculus [3]): 1.2
- EC50 (Oryctolagus cuniculus [4]): 0.158 µM
- IC50 [2]: 1.7 µM
